# Measurements reported in patent US7901724B2, “Fermented tea obtained by tea-rolling processing of tea material leaves and loquat leaves, and composition having extract contained in fermented tea as active component” (Nagasaki Prefectural Government, priority 2004, dated 2011).
# Tested on: normal rat
# Experiment: Maltose load in normal rat, single administration, blood glucose levels
# Type: in vivo
# Conditions: maltose 2 g/kg load
# Protocol: Maltose was administered to a normal rat at a dosage of 2 g per kg of the body weight. Subsequently, an extract obtained by extracting the fermented tea obtained by means of tea-rolling processing with hot water was administered to the rat at a dosage of 20 mg per kg of the body weight, or a product was administered to the rat at a dosage of 20 mg per kg of the body weight, in which a plant in Sri Lanka, one of the materials having high activities with the highest level among the materials reported heretofore (J. Agri. Food. Chem. 2004) was extracted with methanol, then concentrated, and then freeze-dried, followed by dissolving the freeze-dried product in water. 30 minutes, 60 minutes, and 120 minutes after the administration, the blood glucose levels were measured.
# As an indication of 50% reduction of the elevation of blood glucose levels, EC50 is employed.
# Maltose was administrated to a normal rat at a dosage of 2 g per kg of the body weight. Subsequently, an extract obtained by extracting the fermented tea obtained by means of tea-rolling processing with hot water was administered at a dosage of 10 mg per kg of the body weight or 20 mg per kg of the body weight. A decreasing rate of the total blood glucose level area up to 120 minutes after carrying out carbohydrate load (AUCO-120) is shown in Table 6.
smiles,measurement,value
"C[C@H]1O[C@H](O[C@H]2[C@H](O)[C@@H](O)[C@@H](O[C@H]3[C@H](O)[C@@H](O)C(O)O[C@@H]3CO)O[C@@H]2CO)[C@H](O)[C@@H](O)[C@@H]1N[C@H]1C=C(CO)[C@@H](O)[C@H](O)[C@H]1O (stereo partly shown) [Acarbose, acarbose]",EC50 (50% reduction of the elevation of blood glucose levels),3.1 mg/kg
